Measured values published in patent publication US9187413B2, “Peripherally restricted FAAH inhibitors” (The Regents of the University of California, priority 2010, dated 2015).

Key:
Type in all cases: in vivo
Fos protein = assay: Formalin-induced Fos expression in lumbar spinal cord; details: rats, URB937 1 mg-kg^-1, i.p., lumbar spinal cord
Method: Fos expression. We measured Fos protein levels by quantitative immunocytochemistry^5 on slices of lumbar (L4/L5) spinal cord from male Sprague-Dawley rats.
Fos immunohistochemistry Two hours after formalin injection into the dorsal paw, rats received a lethal dose of Nembutal (50 mg-mL^−1). They were perfused through the heart with 100 mL of 1% heparinized phosphate buffered saline (PBS) followed by 300 mL of ice-cold 4% paraformaldehyde. The lumbar-sacral region of the spinal cord was collected from each rat. Spinal cords were post fixed in 4% paraformaldehyde at 4° C. for 24 h and then cryoprotected in 30% sucrose at 4° C. for 24-48 hours. Spinal cords were cryostat-cut into 40 μm transverse sections at the level of the lumbar enlargement (L4/L5). Free floating alternating sections were kept in a series of wells filled with PBS. Every fourth section was processed for Fos immunoreactivity to ensure that the same cell would not be counted twice. Endogenous peroxidases were inactivated by incubation in hydrogen peroxide. […]
Selection of sections and quantification of the number of Fos-positive cells was performed by an observer blinded to experimental conditions. […] Using Image J, Fos expressing cells were counted in each subdivision, regardless of staining intensity, by an observer blinded to experimental treatments.

[1] = tested on: blood-brain barrier transporters; assay: Co-administration of inhibitors of blood-brain barrier transporters with URB937; details: rats, URB937 25 mg-kg^-1 i.p.
sciatic nerve ligation = assay: Sciatic nerve ligation pain behavior; details: mice
Description: Surgery. We performed sciatic nerve ligations in male Swiss mice, as previously described for rats^24 with minor modifications^39.
Behavioral tests. We measured nocifensive responses elicited by i.p. injection of acetic acid in male Swiss and C57B1/6 (wild-type or FAAH-deficient) mice^40, intraplantar injection of carrageenan in male Swiss mice^20, intraplantar injection of formalin in male Sprague-Dawley rats^41, and sciatic nerve ligation in male Swiss mice^39.
Surgeries All surgeries were conducted under aseptical conditions. Implantation of cannulae for intracerebroventricular (i.c.v.) drug administration. SD rats were anesthesized using a mixture of ketamine (70 mg-kg^−1, i.p.) and xylazine (9.33 mg-kg^−1, i.p.). They were placed in a stereotaxic frame and stabilized by ear bars (David Kopf Instruments, Tujunga, Calif., USA) with the incisor bar set 2.4 mm below the horizontal plane. A 22-gauge stainless-steel guide cannula was implanted into the right lateral cerebral ventricle 7 days prior to experiments. Coordinates for implantation (−0.9 mm antero/posterior and −1.5 mm medio/lateral relative to bregma, and 3.8 mm below the surface of the skull) were determined using the Paxinos and Watson rat brain atlas^45. Guide cannulae were anchored to the skull with 3 stainless-steel screws and dental cement, and were kept patent until injection by insertion of a dummy stylet. […]
Behavioral tests Acetic acid-induced writhing was measured in Swiss mice or C57B1/6 mice (wild-type and FAAH-deficient), as described^40 with minor modifications. […] Abdominal stretches (extension of body and hind limbs) were counted for 20 min, starting 5 min after acetic acid injection. […] Behavior was scored by an observer blinded to the treatment conditions. Formalin-induced nociception was assessed in Sprague-Dawley rats, as described^41. […]

[2] = single dose 1 mg-kg^-1, i.p., 2 h before testing, one week after surgery, operated paws

## NC(=O)c1cccc(-c2cc(OC(=O)NC3CCCCC3)ccc2O)c1 [Compound 1b, cyclohexylcarbamic acid 3′-carbamoyl-6-hydroxybiphenyl-3-yl ester]
Fos protein
  formalin-induced Fos expression: lowered the Fos response to formalin
[1]; co-administration of BCRP inhibitor Ko-143
  access of URB937 to the brain with Ko-143: dose-dependent increase
[1]; co-administration of verapamil or probenecid
  access of URB937 to the brain with verapamil or probenecid: no such effect
Sciatic nerve ligation; 1 mg-kg^-1, i.p., once daily for 4 days, starting 3 days after ligation
  antinociceptive effect of repeated injections after sciatic nerve ligation: undistinguishable from that caused by single drug dosing
Sciatic nerve ligation; [2]
  mechanical hyperalgesia and mechanical allodynia after sciatic nerve ligation: suppressed mechanical hyperalgesia and mechanical allodynia
  thermal hyperalgesia after sciatic nerve ligation: attenuated thermal hyperalgesia
